From US11352354B2, “Substituted penta-fused hexa-heterocyclic compounds, preparation method therefor, drug combination and use thereof” (Xiamen University, priority 2017, dated 2022) come the findings set out here.

Some results are limits rather than exact numbers.

Assay [1] has as its system MDA-MB-231 cells. As to the kind of experiment: Vacuolation of MDA-MB-231 cells caused by inhibition of compounds on PIKfyve (microscopy). Also: key: '+' represents the degree of vacuolation; ++: more '+' indicates more obvious vacuolation; +++: more '+' indicates more obvious vacuolation; ++++: more '+' indicates more obvious vacuolation; '−' represents no vacuolation. The settings on record: MDA-MB-231 cells. The class given is cell-based. The gist of the method: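 MDA-MB-231 cells in 12-well plates at 37 °C, 5% CO2 were observed by microscopy after 24 and 48 h of culture for cytoplasmic vacuolation as a readout of PIKfyve inhibition. Scoring was semi-quantitative, from − (none) to increasing +.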

For assay [2], the system named is Toledo cells. Briefly: Growth inhibition of PIKfyve-mediated tumor cells by Cell Titer Glo method, Toledo. Format: cell-based. The settings on record: Homo sapiens, 120 h, CellTiter-Glo, 5 days of culture, read-out: Inhibition rate % (Toledo). Here is the method: (§1) IV. Determination of Growth Inhibition Rates of Compounds Against PIKfyve-Mediated Tumor Cells by Cell Titer Glo Method
(§2) 1. Cell plating: cells in logarithmic growth phase were counted and inoculated in 384-well plate.
(§3) 3. […] RLU was measured on PHERAstar Plus.

The target of assay [3] is PIKfyve protein (Homo sapiens (Human), UniProt Q9Y2I7). Briefly: Dissociation equilibrium constant (Kd) of compound and PIKfyve protein, DiscoverX KINOMEscan. Conditions: eleven 3-fold dilutions, curve fitting. The class given is binding. The method, then:
II. Determination of Dissociation Equilibrium Constant (Kd Value) of Compound and PIKfyve Protein
The Kd value was determined by DiscoverX's KINOMEscan™ technology according to the following steps:
1. Preparation of magnetic beads: biotin-labeled small molecule ligand and avidin-coated magnetic beads were allowed to interact at room temperature for 30 minutes, and then added with excess biotin, followed by washing with a blocking solution (1% BSA, 0.05% Tween 20, 1 mM DTT) to remove unbound ligand.
2. Binding reaction: in a 384 plate, 0.02 mL system, DNA-labeled protein, small molecule ligand-bound magnetic beads, and different concentrations of compound to be tested were mixed in a reaction solution (0.17×PBS, 0.05% Tween 20, 6 mM DTT) at room temperature with shaking for 1 hr, to which was added an eluant (1×PBS, 0.05% Tween 20) for elution. Magnetic beads were resuspended by an eluant (1×PBS, 0.05% Tween 20, 0.5 μM non-biotin-labeled small molecule ligand), and shaken at room temperature for 30 min before separating out the eluant.
3. Determination of Kd value: the content of protein in the above eluate was determined by qPCR. Eleven 3-fold dilution concentrations were determined for the compound to be tested, with 3 DMSO controls for each concentration, and the Kd value was obtained by curve fitting.

Assay [4] relates to ST486 cells. Briefly: Growth inhibition of PIKfyve-mediated tumor cells by Cell Titer Glo method, ST486. Format: cell-based. Conditions: Homo sapiens, 120 h, CellTiter-Glo, 5 days of culture, read-out: Inhibition rate % (ST486). Here is the method: as §1, §2, §3
Assay [5] concerns JeKo-1 cells. Briefly: Tumor cell growth inhibition by MTS method, JeKo-1. Format: cell-based. The settings on record: Homo sapiens, JeKo-1, 120 h, 5 days of culture. The method, then: III. Determination of IC50 Value of Compound for Inhibiting Tumor Cell Growth by MTS Method
1. Cell plating: cells in logarithmic growth phase were counted and inoculated in a 96-well plate (20000 cells per well).
2. Administrating agent to cell: 10 mM compound mother solution in DMSO was subjected to 3 fold-gradient dilution, to set 8 concentrations, which were then added to various wells, with three replicates for each concentration, and three blank wells (only culture medium) and three negative controls (containing 0.1% DMSO) on each plate.
3. […] The OD value at 490 nm was measured with microplate reader OD490. The cell growth inhibition rate was calculated by the following formula: Cell growth inhibition rate %=1−(ODexperimental group−ODblank group)/(ODnegative group−ODblank group)×100%
The semi-inhibitory concentration IC50 of the compound acting on cell growth was calculated using GradPad Prism 5 software according to the measured cell growth inhibition rate.
In the following table it lists the IC50 value or the inhibition rates of some compounds at 10 μM against JeKo-1 cells
For orientation: Tetrazolium dyes change colour on reduction, which living cells bring about.

PIKfyve protein, sequence (Q9Y2I7 whole entry): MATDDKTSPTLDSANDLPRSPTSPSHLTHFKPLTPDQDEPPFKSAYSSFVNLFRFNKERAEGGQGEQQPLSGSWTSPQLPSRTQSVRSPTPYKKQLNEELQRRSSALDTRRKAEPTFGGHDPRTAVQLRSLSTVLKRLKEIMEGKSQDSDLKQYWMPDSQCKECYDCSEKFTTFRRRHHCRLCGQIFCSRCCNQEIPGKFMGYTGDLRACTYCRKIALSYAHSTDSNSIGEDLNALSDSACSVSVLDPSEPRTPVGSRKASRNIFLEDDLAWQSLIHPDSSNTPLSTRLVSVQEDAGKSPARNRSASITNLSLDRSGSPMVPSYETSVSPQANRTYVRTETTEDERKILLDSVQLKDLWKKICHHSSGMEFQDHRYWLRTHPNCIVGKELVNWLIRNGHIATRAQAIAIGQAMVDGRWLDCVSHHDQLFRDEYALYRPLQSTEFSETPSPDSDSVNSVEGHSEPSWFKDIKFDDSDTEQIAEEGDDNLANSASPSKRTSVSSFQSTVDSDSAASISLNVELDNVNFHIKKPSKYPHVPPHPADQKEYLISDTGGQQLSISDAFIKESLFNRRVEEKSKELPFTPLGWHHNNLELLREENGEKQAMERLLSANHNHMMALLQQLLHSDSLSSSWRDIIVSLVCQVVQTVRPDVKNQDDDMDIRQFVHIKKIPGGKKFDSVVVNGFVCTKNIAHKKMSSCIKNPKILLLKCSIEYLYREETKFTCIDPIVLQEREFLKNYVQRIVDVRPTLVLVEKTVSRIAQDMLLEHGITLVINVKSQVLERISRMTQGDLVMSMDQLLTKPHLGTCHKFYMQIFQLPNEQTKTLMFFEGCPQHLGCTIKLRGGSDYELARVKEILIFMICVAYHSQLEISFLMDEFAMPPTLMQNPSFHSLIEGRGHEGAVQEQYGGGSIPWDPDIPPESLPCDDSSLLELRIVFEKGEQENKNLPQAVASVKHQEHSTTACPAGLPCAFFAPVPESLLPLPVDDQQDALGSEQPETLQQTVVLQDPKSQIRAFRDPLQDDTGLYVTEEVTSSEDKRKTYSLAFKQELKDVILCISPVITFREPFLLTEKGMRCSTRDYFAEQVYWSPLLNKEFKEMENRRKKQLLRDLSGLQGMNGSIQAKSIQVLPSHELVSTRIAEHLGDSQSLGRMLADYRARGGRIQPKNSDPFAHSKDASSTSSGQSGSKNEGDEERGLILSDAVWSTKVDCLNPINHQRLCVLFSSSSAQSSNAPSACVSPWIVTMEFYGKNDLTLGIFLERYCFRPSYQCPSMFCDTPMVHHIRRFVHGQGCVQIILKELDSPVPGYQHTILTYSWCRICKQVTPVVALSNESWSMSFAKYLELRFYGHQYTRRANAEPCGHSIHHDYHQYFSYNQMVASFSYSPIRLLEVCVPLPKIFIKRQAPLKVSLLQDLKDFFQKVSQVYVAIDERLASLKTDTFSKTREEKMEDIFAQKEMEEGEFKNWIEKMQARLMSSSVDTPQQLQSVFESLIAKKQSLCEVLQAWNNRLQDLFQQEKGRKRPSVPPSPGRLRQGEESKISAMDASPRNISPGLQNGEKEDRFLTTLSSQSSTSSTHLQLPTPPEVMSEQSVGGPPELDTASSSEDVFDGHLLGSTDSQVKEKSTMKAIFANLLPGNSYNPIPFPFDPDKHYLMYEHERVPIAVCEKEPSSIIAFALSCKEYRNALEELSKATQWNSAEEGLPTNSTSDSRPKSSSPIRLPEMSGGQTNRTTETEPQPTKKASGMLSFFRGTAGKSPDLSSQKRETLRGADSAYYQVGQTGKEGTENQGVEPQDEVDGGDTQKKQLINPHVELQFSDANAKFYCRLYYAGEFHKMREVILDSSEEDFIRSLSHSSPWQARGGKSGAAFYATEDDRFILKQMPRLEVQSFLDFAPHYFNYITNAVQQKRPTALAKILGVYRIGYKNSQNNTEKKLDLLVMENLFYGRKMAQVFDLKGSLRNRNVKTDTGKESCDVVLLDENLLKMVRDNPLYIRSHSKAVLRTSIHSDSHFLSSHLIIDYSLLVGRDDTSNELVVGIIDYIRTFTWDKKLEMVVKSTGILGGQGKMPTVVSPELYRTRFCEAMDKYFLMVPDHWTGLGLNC

In the case of `CS(=O)(=O)Nc1cccc(Nc2nc(-c3cccnc3)c3[nH]ccc3n2)c1` [V-c-1], in assay [1], the “degree of vacuolation, 1 μM, 24 h” value is given as “−”; the “degree of vacuolation, 1 μM, 48 h” value was “−”; the “degree of vacuolation, 10 μM, 24 h” value was “++”; the “degree of vacuolation, 10 μM, 48 h” value was “++”. Besides, the inhibition (in general, the relative decrease from the control value, in per cent) at 3.3 µM in assay [2] is 43.1%. The Kd (in general, the constant that tells how readily two partners part at equilibrium) in assay [3] was 0.13 µM. In assay [4], the inhibition at 3.3 µM is 35.2%.

With `Cc1ccc(C(=O)Nc2cccc(C(F)(F)F)c2)cc1Nc1nc(-c2cccnc2)c2[nH]ccc2n1` [V-c-7], in assay [1], the “degree of vacuolation, 1 μM, 24 h” value was “++”; the “degree of vacuolation, 1 μM, 48 h” value is “++”; the “degree of vacuolation, 10 μM, 24 h” value is “+”; the “degree of vacuolation, 10 μM, 48 h” value is on record as “+”. Also, the inhibition at 3.3 µM in assay [2] worked out at 95.8%. The IC50 (usually the concentration at which inhibition is half-maximal) in assay [5] is 3.28 µM. The inhibition at 3.3 µM in assay [4] was found to be 91.3%.

As to `Cc1ccc(C(=O)Nc2cc(C(F)(F)F)cc(C(F)(F)F)c2)cc1Nc1nc(-c2cccnc2)c2[nH]ccc2n1` [V-c-9], the inhibition at 3.3 µM turned out to be 19.3% in assay [2] and 37.7% in assay [4]. Besides, the dissociation constant (Kd) in assay [3] stood at 0.029 µM.

Regarding `Cc1ccc(NC(=O)c2cc(C(F)(F)F)cc(C(F)(F)F)c2)cc1Nc1nc(-c2cccnc2)c2[nH]ccc2n1` [V-c-21], the inhibition at 3.3 µM worked out at 99.5% in assay [2] and 23.8% in assay [4]. Also, binding in assay [3] was characterised by a dissociation constant (Kd) of 0.91 µM.

For the molecule `Cc1cc(NC(=O)c2cccc(C(F)(F)F)c2)ccc1Nc1nc(-c2cccnc2)c2[nH]ccc2n1` [V-c-24], the inhibition at 3.3 µM in assay [2] was 97.3%; in assay [4], 55.8%. In assay [3], the Kd is > 30 µM.

With `Cc1ccc(C(=O)Nc2cccc(C(F)(F)F)c2)cc1Nc1nc(-c2ccncc2)c2[nH]ccc2n1` [V-c-38], the figures for the inhibition at 3.3 µM in assay [2] and in assay [4] were 53.3% and 30%, respectively. In addition, the Kd in assay [3] was > 30 µM.

For the molecule `Cc1ccc(NC(=O)c2cccc(C(F)(F)F)c2)cc1Nc1nc(-c2ccncc2)c2[nH]ccc2n1` [V-c-39], the inhibition at 3.3 µM in assay [2] is 49.1%; in assay [4], 9.57%. Besides, in assay [3], the Kd was > 30 µM.

For the molecule `Cc1ccc(NC(=O)c2cccc(C(F)(F)F)c2)cc1Nc1nc(-c2ccccc2)c2[nH]ccc2n1` [V-c-41], in assay [3], the Kd was > 30 µM.

`Cc1ccc(NC(=O)c2cccc(C(F)(F)F)c2)cc1Nc1nc(-c2ccco2)c2[nH]ccc2n1` [V-c-42]: the Kd in assay [3] was > 30 µM.

Take `Cc1ccc(NC(=O)c2cccc(C(F)(F)F)c2)cc1Nc1nc(-c2cccs2)c2[nH]ccc2n1` [V-c-43]: in assay [3], the Kd is > 30 µM.

On to `COc1ccc(C(F)(F)F)cc1NC(=O)c1ccc(C)c(Nc2nc(-c3ccccc3)c3[nH]ccc3n2)c1` [V-c-51], for which the Kd in assay [3] is > 30 µM.

In the case of `COc1ccc(C(F)(F)F)cc1NC(=O)c1ccc(C)c(Nc2nc(-c3ccco3)c3[nH]ccc3n2)c1` [V-c-52], in assay [3], the Kd is > 30 µM.

Take `COc1ccc(C(F)(F)F)cc1NC(=O)c1ccc(C)c(Nc2nc(-c3cccs3)c3[nH]ccc3n2)c1` [V-c-53]: the Kd in assay [3] is > 30 µM.

Consider `Cc1ccc(C(=O)Nc2cccc(OC(F)(F)F)c2)cc1Nc1nc(-c2ccccc2)c2[nH]ccc2n1` [V-c-61], for which the Kd in assay [3] was > 30 µM.

Regarding `Cc1ccc(C(=O)Nc2cccc(OC(F)(F)F)c2)cc1Nc1nc(-c2ccco2)c2[nH]ccc2n1` [V-c-62], the Kd in assay [3] was > 30 µM.

For `Cc1ccc(C(=O)Nc2cccc(OC(F)(F)F)c2)cc1Nc1nc(-c2cccs2)c2[nH]ccc2n1` [V-c-63], in assay [3], the Kd is > 30 µM.

As for `Cc1ccc(C(=O)Nc2cccc(C(F)(F)F)c2)cc1Nc1cc(-c2ccncc2)nc2sccc12` [VIII-a-8], in assay [1], the “degree of vacuolation, 1 μM, 24 h” value is listed as “−”; the “degree of vacuolation, 1 μM, 48 h” value was “++”; the “degree of vacuolation, 10 μM, 24 h” value is “−”; the “degree of vacuolation, 10 μM, 48 h” value was “++”. Also, in assay [5], the IC50 came out at 2 µM.
